Laboratory results: patent US20260285857A1, “BICYCLIC AND HETEROCYCLIC AMIDE COMPOUNDS” (priority 2024, published 2026)

Tested on: immunoglobulin light chain protein WIL-FL T46L
Assay: Differential scanning fluorimetry (thermal shift) assay
Format: binding
Settings: temperature shift [Tm]compound-[Tm]vehicle, recombinant WIL-FL T46L

Row | SMILES | DSF (Table A) | DSF (Table B)
1 | Cc1cc(N2CC[C@](C)(c3ccccc3)C2)cn2nc(C(=O)NC3COCC3(C)O)nc12 (some centres unmarked) [Compound 141] | ***** (>2.5° C.=*****) | –
2 | Cc1nnc(C2(C)CCN(c3cc(C)c4nc(C(=O)N5C[C@@H]6CN(c7cccc(C(=O)O)n7)C[C@@H]6C5)nn4c3)C2)s1 (some centres unmarked) [Compound 301] | * (0-0.5° C.=*) | –
3 | Cc1cc(N2CC[C@](C)(c3ccccc3)C2)cn2nc(C(=O)N[C@@H]3CCNC3)nc12 [Compound 102] | ***** (>2.5° C.=*****) | –
4 | Cc1cc(N2CC[C@](C)(c3ccccc3)C2)cn2nc(C(=O)N3CC[C@@]4(CCN(C(=O)CC(C)(C)O)C4)C3)nc12 [Compound 721] | – | ***** (>2.5° C.=*****)
5 | Cc1cc(N2CC[C@](C)(c3ccccc3)C2)cn2nc(C(=O)N3CCC4(C3)CN(c3cccc(C(=O)O)n3)C(=O)O4)nc12 (some centres unmarked) [Compound 687] | – | ***** (>2.5° C.=*****)
6 | Cc1n[nH]c(C2C3COC2(c2nc4c(CN)cc(N5CC[C@](C)(c6ccccc6)C5)cn4n2)C3)n1 (some centres unmarked) [Compound 483] | – | ***** (>2.5° C.=*****)
7 | Cc1cc(N2CCC(C)(C3CC4(CCC4)C3)C2)cn2nc(C(=O)N3C[C@@H]4CN(c5cccc(C(=O)O)n5)C[C@@H]4C3)nc12 (some centres unmarked) [Compound 296] | ** (>0.5-1 °C =**) | –
8 | CNC(=O)c1nc2c(C(C)C)cc(N3CC[C@](C)(c4ccccc4)C3)cn2n1 [Compound 337] | **** (>1.5-2.5° C.=****) | –
9 | Cc1cc(N2CC[C@](C)(c3ccccc3)C2)cn2nc(C(=O)N3CCC4(CCN(c5ccnc(C(=O)O)n5)C4)C3)nc12 (some centres unmarked) [Compound 266] | ***** (>2.5° C.=*****) | –
10 | Cc1nc(C2C3(CN)COC2(c2nc4c(C)cc(N5CC[C@](C)(c6ccccc6)C5)cn4n2)C3)n[nH]1 (some centres unmarked) [Compound 46] | ***** (>2.5° C.=*****) | –
11 | Cc1cc(N2CC[C@](C)(c3ccccc3)C2)cn2nc(C34CC(CO3)C4c3nc(NC(=O)N4CC(C(=O)O)C4)n[nH]3)nc12 (some centres unmarked) [Compound 554] | – | ***** (>2.5° C.=*****)
12 | Cc1cc(N2CC[C@](C)(c3ccccc3)C2)cn2nc(C(=O)NCC3(O)COC3)nc12 [Compound 106] | ***** (>2.5° C.=*****) | –
13 | Cc1cc(OC[C@H](C)c2ccccc2)cn2nc(C(=O)NCC(C)(C)O)nc12 [Compound 317] | ***** (>2.5° C.=*****) | –
14 | CCC1(c2ccccc2)CN(c2cc(CO)c3nc(C(=O)NC4CCN(c5cccc(C(=O)O)n5)CC4)nn3c2)C1 [Compound 392] | ***** (>2.5° C.=*****) | –
15 | Cc1cc(N2CC[C@](C)(c3ccccc3)C2)cn2nc(C(=O)NC3CC(N4CC5C(C4)C5C(=O)O)C3)nc12 (some centres unmarked) [Compound 354] | ***** (>2.5° C.=*****) | –
16 | Cc1cc(N2CC[C@](C)(c3ccccc3)C2)cn2nc(C34CC(CO3)C4CN3CCN(C)C(=O)C3)nc12 (some centres unmarked) [Compound 488] | – | ***** (>2.5° C.=*****)
17 | Cc1cc(N2CC[C@](C)(c3ccccc3)C2)cn2nc(C(=O)NC3CC4(C3)CC(N3C[C@@H](O)[C@@H](O)C3)C4)nc12 (some centres unmarked) [Compound 369] | ***** (>2.5° C.=*****) | –
18 | Cc1cc(N2CC[C@](C)(c3ccccc3)C2)cn2nc(C(=O)NC3CCS(=O)(=O)C3)nc12 (some centres unmarked) [Compound 109] | ***** (>2.5° C.=*****) | –
19 | CC(=O)Nc1n[nH]c(C2C3COC2(c2nc4c(C)cc(N5CC[C@](C)(c6ccccc6)C5)cn4n2)C3)n1 (stereo partly drawn) [Compound 10, N-[5-[1-[8-methyl-6-[(3R)-3-methyl-3-phenyl-pyrrolidin-1-yl]-[1,2,4]triazolo[1,5-a]pyridine-2-yl]-2-oxabicyclo[2.1.1]hexan-5-yl]-1H-1,2,4-triazol-3-yl]acetamide] | ***** (>2.5° C.=*****) | –
20 | CCC(=O)Nc1n[nH]c(C2C3(CO)COC2(c2nc4c(C)cc(N5CC[C@](C)(c6ccccc6)C5)cn4n2)C3)n1 (stereo partly drawn) [Compound 572, N-[5-[4-(hydroxymethyl)-1-[8-methyl-6-[(3R)-3-methyl-3-phenyl-pyrrolidin-1-yl]-[1,2,4]triazolo[1,5-a]pyridin-2-yl]-2-oxabicyclo[2.1.1]hexan-5-yl]-1H-1,2,4-triazol-3-yl]propanamide] | – | ***** (>2.5° C.=*****)
